In paper PMC8998611, “Identification of Novel GSK-3β Hits Using Competitive Biophysical Assays” (International Journal of Molecular Sciences, 2022):

How the values were obtained:
GSK-3β [1] = target: T1, GSK-3β (Homo sapiens, UniProt P49841); experiment: LANCE Ultra TR-FRET GSK-3β kinase inhibition assay (ULight-GS phosphorylation); format: biochemical; settings: 1 µM ATP, 50 nM ULight-GS; for IC50: dose-response 30 nM to 200 μM
Experimental: To assess if the identified GSK-3β binders were also able to affect kinase activity, the inhibitory activity of the four identified hit compounds was tested at four concentrations (1-5-50-100 μM) using the LANCE® Ultra (Perkin Elmer, Waltham, MA, USA) time-resolved fluorescence resonance energy transfer (TR-FRET) assay. The assay measures the ability of GSK-3β to phosphorylate a specific substrate, human Muscle Glycogen Synthase (ULight-GS ([…]/pSer657)), in the presence and absence of the identified ligands. […] Specifically, IC50 values were (14.81 ± 0.55) μM and (15.25 ± 1.34) μ[…] and G12, respectively (Figure 5). The GSK-3β kinase assay was run in 384 well microplates (OptiPlate^TM-384, White, Perkin Elmer) with a total reaction volume of 20 μL. The inhibitory potency against human recombinant GSK-3β was evaluated using the LANCE® Ultra (Perkin Elmer) time-resolved fluorescence resonance energy transfer (TR-FRET) by measuring the phosphorylation of the specific substrate, human Muscle Glycogen Synthase (ULight-GS ([…]/pSer657)), according to the manufacturer's instructions. […] The reaction was initiated by adding 50 nM of the substrate ULight-[…] and 1 μM ATP. The mixture was incubated for 1 h at 23 °C. Afterward, the reaction was stopped by adding 8 mM EDTA. After 5 min, the anti-phospho-GS antibody labeled with europium chelate was added. 1 h later, the kinase reaction was monitored by irradiation at 320 nm, and the fluorescence was measured at 615 and 665 nm, using EnVision 2014 Multilabel Reader (PerkinElmer). The calculated signal ratio at 665/615 nm was proportional to the extent of ULight-GS phosphorylation. The compounds were screened at four concentrations (1-5-50-100 μM). For selected compounds, dose-response curves, ranging from 30 nM up to 200 μM, were performed. Dose-response curves were run in three independent experiments, each performed in three technical replicates. IC50 values (concentrations causing half-maximal response or enzyme inhibition) were determined by non-linear regression analysis of the Log [concentration]/response curves generated with mean replicate values using a four parameter Hill equation curve fitting with GraphPad Prism 8 (GraphPad Software Inc., San Diego, CA, USA).

GSK-3β [2] = target: T1, GSK-3β; experiment: MicroScale Thermophoresis (MST) binding to fluorescently labeled GSK-3β; set-up: made in house; host or cells: Sf9 cells; settings: preincubation with 3 mM AMP-PNP; data not shown
Experimental: MicroScale Thermophoresis (MST) experiments were conducted in triplicate on a Monolith NT.115 Pico system (NanoTemper Technologies, Munich, Germany).
The MST technique was used both for hit binding and for affinity (kd) determination.
GSK-3β was labeled with the His-tag RED-tris-NTA label 2nd generation (Nanotemper Technologies) following Nanotemper technology protocol. The 100 nM stock labeled protein solution was used at 20 nM concentration to roughly start from 7000 fluorescence counts in each screening experiment.
GSK-3β was labelled also using RED-NHS ammine dye (Nanotemper Technologies) following the manufacturer’s protocol. The obtained ammine-labeled protein was used at 20 nM concentration to roughly start the experiments from 6000 fluorescence counts.
Binding tests were performed on eight capillaries with a constant concentration of the labeled protein (20 nM), to detect the effect induced by the compounds on the fluorescence signal (in the presence or absence of 3 mM AMP-PNP). Protein in assay buffer in the presence of 5% DMSO was the negative control.
Assay buffer: Phosphate buffer 0.1 M pH 7.2, 5 mM MgCl2, 0.001% Tween80, 0.1% PEG8000. Experiments were performed in triplicates. Data elaboration and plots were performed using MO.Control Nanotemper software.

T1 sequence (P49841 whole entry): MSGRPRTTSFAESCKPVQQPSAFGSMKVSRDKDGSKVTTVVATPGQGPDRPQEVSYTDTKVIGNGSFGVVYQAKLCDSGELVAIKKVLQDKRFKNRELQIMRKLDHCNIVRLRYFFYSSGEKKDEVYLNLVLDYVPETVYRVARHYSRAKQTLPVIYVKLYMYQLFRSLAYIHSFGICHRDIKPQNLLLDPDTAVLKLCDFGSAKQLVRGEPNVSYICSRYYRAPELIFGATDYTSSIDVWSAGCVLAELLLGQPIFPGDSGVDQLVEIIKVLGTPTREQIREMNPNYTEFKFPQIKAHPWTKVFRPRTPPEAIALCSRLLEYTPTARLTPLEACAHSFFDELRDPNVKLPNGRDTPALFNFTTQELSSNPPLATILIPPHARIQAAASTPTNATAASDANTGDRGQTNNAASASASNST

SMILES	IC50 (GSK-3β [1]) [µM]	MST binding check, displacement assay (GSK-3β [2])	inhibition at 1 µM (GSK-3β [1]; 1 μM compound, mean ± SD) [%]	inhibition at 5 µM (GSK-3β [1]; 5 μM compound, mean ± SD) [%]	inhibition at 50 µM (GSK-3β [1]; 50 μM compound, mean ± SD) [%]	inhibition at 100 µM (GSK-3β [1]; 100 μM compound, mean ± SD) [%]
O=C(Nc1ccccn1)C1CCN(C(=O)COc2ccccc2F)C1 (stereo not shown) [ARN1484]	38.1	–	–	–	–	–
CN(C)S(=O)(=O)N1CC(c2nc(N)ncc2-c2ccc(F)cc2)C1 [ARN9133]	27.2	–	–	–	–	–
O=C(NCCn1ncc(-c2ccncc2)c1C1CC1)c1ccccc1F [B3]	–	maintained their ability to bind GSK-3β	2.5 ± 0.9	4.9 ± 1.5	27.1 ± 4.9	46.6 ± 6
